Experiments:
[1] = test system: Tomatoes (Rutgers 39 Variety); experiment: Tomato epinasty test (foliar spray to run off, then ethylene exposure); assay type: in vivo
Method: Tomato epinasty tests were performed as follows:
Two seeds were place in each pot. Plants that had expanded first true leaves and were between 3 and 5 inches high were used for the tomato epinasty test.
To conduct the assay, the plants were sprayed-to run off with the test 1-MCP foliar spray and allowed to dry for 4 hours in sunlight These operations were performed in a ventilated area away from the plants growing in the greenhouse so there would not be any unintended treatment to growing plants destined for later experiments.
(§1) The 1-MCP treated plants and both treated and untreated controls were placed into an SLX controlled-atmosphere shipping box and sealed. To the box, ethylene was injected through a septum, which gave a concentration of 14 ppm. The plants were held sealed for 12-14 hours in the dark with ethylene in the atmosphere. At the end of ethylene treatment, the box was opened and scored for epinasty. Scoring for epinasty was accomplished by using the following scoring system for each pot. • 1. 0% no epinasty (100% control) • 2. 20% A couple leaves show some drooping (80% control) • 3. 50% Plants show 50% of full response. Not all leaves need to show effect. (50% control) • 4. 80% Almost all leaves drooping and some show underside of leaf exposed on top. (20% control) • 5. 100% Leaves completely drooping and the underside of the leaf exposed from above. (0% control)
The score of each pot is recorded. The average of 6 or 8 pots is averaged to get a score. The percentage improvement is calculated by interpolating the percentage improvement from the control water (i.e., no additives) 1-MCP treatment.
Tomato epinasty tests were conducted using a formulation that included water, a 1-MCP α-CD complex, and sodium salt of EDTA. […] The amount of sodium salt of EDTA in each formulation was 100 ppm. In some formulations, further ingredients were included, as described in the examples below.
Tomato epinasty tests were conducted using a formulation that included water; a 1-MCP α-CD complex that contained 0. […] The amount of 1-MCP α-CD complex was chosen so that the spray formulation had 1.2 ppm of 1-MCP. The amount of sodium salt of EDTA was kept at 50 ppm in the liquid. Also included in the spray formulations were various silicone oils (0.1% by weight based on the weight of the spray).
The amount of 1-MCP α-CD complex was chosen so that the spray formulation had 1.2 ppm of 1-MCP. The amount of sodium salt of EDTA was kept at 50 ppm. Also included in the spray formulations were various silicone oils at 0.1% by weight based on the weight of the spray formulation and sodium dioctylsufosuccinate surfactant at 0.05% by weight based on the weight of the spray formulation.

[2] = test system: Tomatoes (Rutgers 39 Variety); experiment: Tomato epinasty test, plants sprayed in spray hood with motorized track sprayer; assay type: in vivo; details: 1-MCP spray rate 20 grams/hectare, no adjuvant
Method: Tomatoes (Rutgers 39 Variety Harris Seeds No 885 Lot 37729-A3) were grown in 2 ½″ square pots filled with a commercial potting mix. Two seeds were place in each pot. Plants that had expanded first true leaves and were between 3 and 5 inches high were used for the tomato epinasty test.
as §1
The score of each pot is recorded. The average of 6 or 8 pots is averaged to get a score. The percentage improvement is calculated by interpolating the percentage improvement from the control water (i.e., no additives) 1-MCP treatment. […]

## CC1=CC1 [1-MCP, 1-methylcyclopropene]
[1]; 1.2 ppm 1-MCP, silicone oil 0.1 weight % / sodium dioctylsulfosuccinate 0.05 weight % (0 for control), 50 ppm EDTA sodium salt
  % Control of Epinasty: 8%
[1]; 1.2 ppm 1-MCP, silicone oil 0.1 weight % in spray (0 for control), 50 ppm EDTA sodium salt
  % Control of Epinasty: 8%
[1]; 70 ppb 1-MCP (as α-CD complex), no adjuvants, 100 ppm EDTA sodium salt, 14 ppm ethylene 12-14 h
  % Control of Epinasty: 10%
[1]; 140 ppb 1-MCP (as α-CD complex), no adjuvants, 100 ppm EDTA sodium salt
  % Control of Epinasty: 15%
[1]; 280 ppb 1-MCP (as α-CD complex), no adjuvants, 100 ppm EDTA sodium salt
  % Control of Epinasty: 35%
[1]; 1400 ppb 1-MCP (as α-CD complex), no adjuvants, 100 ppm EDTA sodium salt
  % Control of Epinasty: 85%
[2]
  % Control of Epinasty: 26%
